22 molecules from US8435978B2, “Substituted sulfonamide compounds” (Gruenenthal GmbH, priority 2006, dated 2013) can be followed below.

In one test the target is T1, human B1R receptor (Homo sapiens, UniProt P46663).
T1 construct: host or cells: CHO K1 cells (Chinese hamster ovary), stably transfected
T1 sequence (P46663 1-353): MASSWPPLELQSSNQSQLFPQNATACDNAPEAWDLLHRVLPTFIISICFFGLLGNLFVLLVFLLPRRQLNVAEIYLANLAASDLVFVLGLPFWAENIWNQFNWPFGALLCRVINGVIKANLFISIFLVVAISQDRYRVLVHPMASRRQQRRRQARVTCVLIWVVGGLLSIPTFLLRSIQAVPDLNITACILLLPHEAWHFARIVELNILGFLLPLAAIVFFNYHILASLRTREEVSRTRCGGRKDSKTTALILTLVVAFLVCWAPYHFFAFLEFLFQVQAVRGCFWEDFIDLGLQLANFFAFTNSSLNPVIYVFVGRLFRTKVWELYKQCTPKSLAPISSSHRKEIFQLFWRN
Nature of the test: Functional study on the bradykinin receptor 1 (B1R), FLIPR Ca2+ assay, hB1R cells. The test is classed as cell-based. To be noted: agonist Lys-Des-Arg9-bradykinin 0.5 nM, % inhibition compared with the maximum achievable inhibition; for inhibition at 10 µM: CHO-K1, test substance 10 μM, read-out: B1R Antagonism, human [10 μM] % Inhibition; for B1R Antagonism, human [10 μM] % Inhibition: test substance 10 μM, hB1R CHO K1 cells. In a few lines:
(§1)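 FLIPR Ca2+ read-out (Fluo-4, peak fluorescence) in stably transfected CHO K1 cells. Compounds at 10 μM, then 10 min later agonist challenge: human B1R with Lys-Des-Arg9-bradykinin 0.5 nM, rat B1R with Des-Arg9-bradykinin 100 nM; reported as % activation or % of maximal inhibition.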

The next test addresses T2, B1R receptor of the rat (Rattus norvegicus, UniProt P97583).
T2 construct: host or cells: CHO K1 cells (Chinese hamster ovary), stably transfected
T2 sequence (P97583 1-337): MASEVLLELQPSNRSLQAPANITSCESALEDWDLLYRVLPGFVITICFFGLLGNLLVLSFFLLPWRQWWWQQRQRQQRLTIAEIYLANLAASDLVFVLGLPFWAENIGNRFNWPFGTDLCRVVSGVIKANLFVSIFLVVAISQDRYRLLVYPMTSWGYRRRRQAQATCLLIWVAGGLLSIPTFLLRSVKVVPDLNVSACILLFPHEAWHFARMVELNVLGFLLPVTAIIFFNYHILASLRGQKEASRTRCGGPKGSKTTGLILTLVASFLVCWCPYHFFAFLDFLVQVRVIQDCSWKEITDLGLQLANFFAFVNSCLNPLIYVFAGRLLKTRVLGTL
Nature of the test: Functional study on the bradykinin receptor 1 (B1R), FLIPR Ca2+ assay, rB1R cells. Format: cell-based. To be noted: agonist Des-Arg9-bradykinin 100 nM, % inhibition compared with the maximum achievable inhibition; for inhibition at 10 µM: CHO-K1, test substance 10 μM, read-out: B1R Antagonism, rat [10 μM] % Inhibition; for B1R Antagonism, rat [10 μM] % Inhibition: test substance 10 μM, rB1R CHO K1 cells. A digest of the protocol: as §1

A word on the inhibition: it is the relative decrease from the control value, in per cent.

Where a name gives a salt, the structure may show the parent alone.

On to `Cc1cc(C)c(S(=O)(=O)N2CCCCC2COCC(=O)Nc2ccc(-n3ccnc3C)cc2)c(C)c1` (centres unmarked) [Example 87, N-[4-(2-methyl-imidazol-1-yl)-phenyl]-2-[1-(2,4,6-trimethyl-phenylsulfonyl)-piperidin-2-ylmethoxy]-acetamide], for which the results for the inhibition at 10 µM at human B1R receptor and at B1R receptor of the rat were 42.7% and 44.4%, respectively.

For the molecule `O=C(COCC1CCCCN1S(=O)(=O)c1c(Cl)cc(Cl)cc1Cl)NCC(c1cccnc1)N1CCOCC1` (centres unmarked) [Example 256, N-(2-morpholino-2-(pyridin-3-yl)ethyl)-2-((1-(2,4,6-trichlorophenylsulfonyl)piperidin-2-yl)methoxy)acetamide], the inhibition at 10 µM on human B1R receptor turned out to be 50.2%; at B1R receptor of the rat, 91%.

Regarding `COc1ccc(C(CNC(=O)COCC2CCCCN2S(=O)(=O)c2c(C)cc(OC)cc2C)N2CCCC2)cc1` (centres unmarked) [Example 252, 2-((1-(4-methoxy-2,6-dimethylphenylsulfonyl)piperidin-2-yl)methoxy)-N-(2-(4-methoxyphenyl)-2-(pyrrolidin-1-yl)ethyl)acetamide], the figures for the inhibition at 10 µM on human B1R receptor and at B1R receptor of the rat were 102% and 97.9%, respectively.

`COc1cc(C)c(S(=O)(=O)N2CCCCC2COCC(=O)N2CCC(N3CCc4cc(F)ccc4C3)CC2)c(C)c1` (centres unmarked) [Example 200, 1-(4-(6-fluoro-3,4-dihydroisoquinolin-2(1H)-yl)piperidin-1-yl)-2-((1-(4-methoxy-2,6-dimethylphenylsulfonyl)piperidin-2-yl)methoxy)ethanone]: the inhibition at 10 µM was found to be 102% on human B1R receptor and 98.7% at B1R receptor of the rat.

With `COc1cc(C)c(S(=O)(=O)N2CCC[C@H]2COCC(=O)N2CCN(C3CCN(C)CC3)CC2)c(C)c1` [Example 180, (S)-2-((1-(4-methoxy-2,6-diimethylphenylsulfonyl)pyrrolidin-2-yl)methoxy)-1-(4-(1-methylpiperidin-4-yl)piperazin-1-yl)ethanone], on human B1R receptor, the “B1R Antagonism, human [10 μM] % Inhibition” value came out at 104%. In addition, the “B1R Antagonism, rat [10 μM] % Inhibition” value at B1R receptor of the rat stood at 98.6%.

For the molecule `COc1cc(C)c(S(=O)(=O)N2CCCCC2COCC(=O)N2CCN(c3ccncc3)CC2)c(C)c1` (centres unmarked) [Example 147, 2-((1-(4-methoxy-2,6-dimethylphenylsulfonyl)piperidin-2-yl)methoxy)-1-(4-(pyridin-4-yl)piperazin-1-yl)ethanone], the inhibition at 10 µM on human B1R receptor and at B1R receptor of the rat was 100% throughout.

`Cc1cc(Br)cc(C)c1S(=O)(=O)N1CCCCC1COCC(=O)N1CCC(CCN2CCCC2)CC1` (centres unmarked) [Example 149, 2-((1-(4-bromo-2,6-dimethylphenylsulfonyl)piperidin-2-yl)methoxy)-1-(4-(2-(pyrrolidin-1-yl)ethyl)piperidin-1-yl)ethanone]: the inhibition at 10 µM on human B1R receptor stood at 99.4%; on B1R receptor of the rat, 100%.

On to `COc1cc(C)c(S(=O)(=O)N2CCCC2COCC(=O)Nc2ccc(N3CCN(C)CC3)cc2)c(C)c1` (centres unmarked) [Example 301, 2-((1-(4-methoxy-2,6-dimethylphenylsulfonyl)pyrrolidin-2-yl)methoxy)-N-(4-(4-methylpiperazin-1-yl)phenyl)acetamide], for which the inhibition at 10 µM is 106% at human B1R receptor and 101% on B1R receptor of the rat.

Regarding `COc1cc(C)c(S(=O)(=O)N2CCCCC2COCC(=O)Nc2ccc(N3CCCC3)cc2)c(C)c1` (centres unmarked) [Example 409, 2-((1-(4-methoxy-2,6-dimethylphenylsulfonyl)piperidin-2-yl)methoxy)-N-(4-(pyrrolidin-1-yl)phenyl)acetamide], the inhibition at 10 µM amounted to 28.1% on human B1R receptor and 81.4% on B1R receptor of the rat.

As for `COc1ccc(CN2CCN(C(=O)COCC3CCCN3S(=O)(=O)c3c(Cl)cccc3Cl)CC2)cc1` (centres unmarked) [Example 451, 2-((1-(2,6-dichlorophenylsulfonyl)pyrrolidin-2-yl)methoxy)-1-(4-(4-methoxybenzyl)piperazin-1-yl)ethanone], the inhibition at 10 µM on human B1R receptor was 80.7%; on B1R receptor of the rat, 99.2%.

Regarding `COc1cc(C)c(S(=O)(=O)N2CCCCC2COCC(=O)N(C)CCN2CCCCC2)c(C)c1` (centres unmarked) [Example 532, 2-((1-(4-methoxy-2,6-dimethylphenylsulfonyl)piperidin-2-yl)methoxy)-N-methyl-N-(2-(piperidin-1-yl)ethyl)acetamide], the inhibition at 10 µM on human B1R receptor stood at 96.4%; on B1R receptor of the rat it was 108%.

Turning to `COc1cc(C)c(S(=O)(=O)N2CCCCC2COCC(=O)Nc2cc(-c3cccs3)n[nH]2)c(C)c1` (centres unmarked) [Example 539, 2-((1-(4-methoxy-2,6-dimethylphenylsulfonyl)piperidin-2-yl)methoxy)-N-(3-(thiophen-2-yl)-1H-pyrazol-5-yl)acetamide], the inhibition at 10 µM came to 38.8% on human B1R receptor and 107% at B1R receptor of the rat.

Turning to `COc1cc(C)c(S(=O)(=O)N2CCCCC2COCC(=O)N2CCC(CCN3CCCC3)CC2)c(C)c1` (centres unmarked) [Example 94, 2-((1-(4-methoxy-2,6-dimethylphenylsulfonyl)piperidin-2-yl)methoxy)-1-(4-(2-(pyrrolidin-1-yl)ethyl)piperidin-1-yl)ethanone hydrochloride], the inhibition at 10 µM at human B1R receptor worked out at 105%; at B1R receptor of the rat it was 103%.

Consider `COc1cc(C)c(S(=O)(=O)N2CCCCC2COCC(=O)N2CCN(C)CC2)c(C)c1` (centres unmarked) [Example 242, 2-((1-(4-methoxy-2,6-dimethylphenylsulfonyl)piperidin-2-yl)methoxy)-1-(4-methylpiperazin-1-yl)ethanone], for which the inhibition at 10 µM at human B1R receptor turned out to be 102%; on B1R receptor of the rat it was 88%.

Consider `COc1cc(C)c(S(=O)(=O)N2CCCCC2COCC(=O)NCC(c2ccc(C(F)(F)F)cc2)N2CCOCC2)c(C)c1` (centres unmarked) [Example 249, 2-((1-(4-methoxy-2,6-dimethylphenylsulfonyl)piperidin-2-yl)methoxy)-N-(2-morpholin-2-(4-(trifluoromethyl)phenyl)ethyl)acetamide], for which, at human B1R receptor, the “B1R Antagonism, human [10 μM] % Inhibition” value came out at 59.22%. For the same molecule, at B1R receptor of the rat, the “B1R Antagonism, rat [10 μM] % Inhibition” value is 92.36%.

As for `COc1cc(C)c(S(=O)(=O)N2Cc3ccccc3CC2COCC(=O)N2CCC(N3CCN(C)CC3)CC2)c(C)c1C` (centres unmarked) [Example 275, 2-((2-(4-methoxy-2,3,6-trimethylphenylsulfonyl)-1,2,3,4-tetrahydroisoquinolin-3-yl)methoxy)-1-(4-(4-methylpiperazin-1-yl)piperidin-1-yl)ethanone], the inhibition at 10 µM on human B1R receptor was determined as 102%; at B1R receptor of the rat it was 93.1%.

In the case of `COc1cc(C)c(S(=O)(=O)N2CCCCC2COCC(=O)NCCN2CCN(C)CC2)c(C)c1` (centres unmarked) [Example 248, 2-((1-(4-methoxy-2,6-dimethylphenylsulfonyl)piperidin-2-yl)methoxy)-N-(2-(4-methylpiperazin-1-yl)ethyl)acetamide], the inhibition at 10 µM on human B1R receptor is 95.6%; on B1R receptor of the rat, 89.9%.

As to “N-(3-(1H-benzo[d]imidazol-2-yl)propyl)-2-((1-(4-methoxy-2,6-dimethylphenylsulfonyl)piperidin-2-yl)methoxy)acetamide [Example 525]”, the “B1R Antagonism, human [10 μM] % Inhibition” value on human B1R receptor stood at 15.41%. Further, the “B1R Antagonism, rat [10 μM] % Inhibition” value on B1R receptor of the rat came out at 102.31%.

With `COc1ccc(N2CCN(C(=O)COCC3CCCCN3S(=O)(=O)c3c(C)cc(OC)cc3C)CC2)cc1` (centres unmarked) [Example 290, 2-((1-(4-methoxy-2,6-dimethylphenylsulfonyl)piperidin-2-yl)methoxy)-1-(4-(4-methoxyphenyl)piperazin-1-yl)ethanone], the inhibition at 10 µM worked out at 104% on human B1R receptor and 92.9% at B1R receptor of the rat.

Consider `O=C(COC[C@@H]1Cc2ccccc2CN1S(=O)(=O)c1ccc(Cl)cc1Cl)N1CCC(CCN2CCCC2)CC1` [Example 183, (S)-2-((2-(2,4-dichlorophenylsulfonyl)-1,2,3,4-tetrahydroisoquinolin-3-yl)methoxy)-1-(4-(2-(pyrrolidin-1-yl)ethyl)piperidin-1-yl)ethanone], for which the inhibition at 10 µM on human B1R receptor amounted to 100%; on B1R receptor of the rat, 96.9%.

As to `COc1cc(C)c(S(=O)(=O)N2CCCC2COCC(=O)N2CCCC2c2ccccn2)c(C)c1` (centres unmarked) [Example 271, 2-((1-(4-methoxy-2,6-dimethylphenylsulfonyl)pyrrolidin-2-yl)methoxy)-1-(2-(pyridin-2-yl)pyrrolidin-1-yl)ethanone], the inhibition at 10 µM at human B1R receptor was 59.1%; at B1R receptor of the rat, 85.9%.

As for `CN(C)CCCN1CCN(C(=O)COCC2CCCCN2S(=O)(=O)c2ccc(Cl)c(Cl)c2)CC1` (centres unmarked) [Example 85, 2-[1-(3,4-dichloro-phenylsulfonyl)-piperidin-2-ylmethoxy]-1-[4-(3-dimethylamino-propyl)-piperazin-1-yl]-ethanone], the inhibition at 10 µM at human B1R receptor worked out at 43.7%; on B1R receptor of the rat, 40.8%.
